Measured values from patent US20230265389A1, “METHOD OF TRANSFECTING MACROPHAGES” (The University Court of The University of Edinburgh, priority 2020, published 2023).

Legend:
[1] = system: hMDMs; assay: Phagocytosis assay with pHrodo E. coli red beads; format: cell-based, human; settings: GFP-transfected hMDMs relative to untransfected hMDMs
Experimental: Cells were seeded in 96 well plates at a density of 200,000 per well in triplicate wells and left to adhere overnight. The following day, medium was aspirated and replaced with TexMACS medium containing NucBlue reagent (Invitrogen) and incubated for 30 min at 37° C. to stain nuclei. Medium was aspirated, cells washed in PBS, and then 100 µl PBS was added to cells. 100 µl of pHrodo E. coli red beads (diluted 1:10 in PBS) was added to the cells, and the cells were observed using an Operetta (PerkinElmer) to photograph fluorescence every 5 minutes over 145 minutes using a 40X objective. Images were analysed using Columbus. Nuclei were identified by NucBlue staining, and pHrodo red fluorescence intensity was measured in a cytoplasmic ring region around the nucleus. Fluorescence is reported as average pHrodo red fluorescence per nucleus.

[2] = system: human monocyte-derived macrophages; assay: Phase/contrast microscopy of transfected macrophages cultured with STING inhibitor; format: cell-based
Source text: (D) In vitro phagocytosis assay of untransfected hMDMs (control) versus GFP-transfected macrophages treated with BX-795 (GFP + BX-795), with M2-like polarising factors (GFP + BX-795 + IL4/IL13 or IL10) or DMSO control (GFP). (E) Serum liver function tests and histological analysis of picrosirius red (PSR) staining of collagen in chronic CCl4mice treated with cryopreserved hMDM (cryo), GFP-transfected hMDM treated with DMSO (GFP), GFP-transfected hMDM treated with BX-795 (GFP+B) or PBS vehicle (vehicle). *p<0.05 one-way ANOVA.
Monocyte-derived macrophages were harvested, counted and resuspended at a density of 5 × 10^7 cells/mL of CliniMACS Electroporation Buffer (Miltenyi). 25-100 µg/mL of pMax-GFP plasmid (Lonza) was mixed with the cell suspension for electroporation. For electroporation, 100 µl of cell/plasmid mix was introduced into 0.2 cm electroporation cuvettes and electroporation conducted with the CliniMACS Prodigy Electroporator (Miltenyi). Parameters assessed were 1st pulse voltage and type, and 2nd pulse voltage, type and length. Following electroporation, cells were cultured as above, with or without the STING inhibitor BX-795 (Invivogen) up to a concentration of 10 µM.

O=C(NCCCNc1nc(Nc2cccc(NC(=O)N3CCCC3)c2)ncc1I)c1cccs1 [BX-795]
phagocytic capacity (average fluorescence of pHRodo beads per cell), of non-genetically modified hMDMs [1]: approximately 66%
cell health and GFP expression ([2]; inhibitor at 10 µM): some loss of cells
cell health and GFP expression ([2]; inhibitor up to 8 µM): remained healthy and GFP-expressing
